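Cultured in 96-well plates, cells were exposed to test compound for 48 hours across five concentrations. At the GI50, growth is halved. TGI: total growth inhibition.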
Key:
Assay in all cases: NCI anticancer screen, dose series, 48 h
[1] = test system: SK-OV-3 ovarian
[2] = test system: U251 CNS
[3] = test system: SF-268 CNS
[4] = test system: HCT-15 colon
[5] = test system: HCT-116 colon
[6] = test system: MOLT-4 leukemia
[7] = test system: CAKI-1 renal
[8] = test system: A498 renal
[9] = test system: MDA-MB-231 breast
[10] = test system: UACC-257 melanoma

Row | SMILES | GI50 [1] [µM] | TGI [1] [µM] | GI50 [2] [µM] | TGI [2] [µM] | GI50 [3] [µM] | TGI [3] [µM] | GI50 [4] [µM] | TGI [4] [µM] | GI50 [5] [µM] | TGI [5] [µM] | GI50 [6] [µM] | GI50 [7] [µM] | TGI [7] [µM] | GI50 [8] [µM] | TGI [8] [µM] | GI50 [9] [µM] | TGI [9] [µM] | GI50 [10] [µM] | TGI [10] [µM] | TGI [6] [µM]
1 | COc1cccc(Nc2nccc(-c3cnn4ncccc34)n2)c1 | 0.151 | > 25 | 0.0553 | 9.24 | 0.0721 | 1.42 | 0.0697 | > 25 | 0.0478 | > 11 | 0.078 | 0.0573 | 3.77 | 0.0483 | 0.126 | 0.0839 | > 25 | 0.0563 | 0.16 | 
2 | CN1CCN(Cc2ccc(NC(=O)c3cncc(C#Cc4cnc(N)c5cnccc45)c3)cc2C(F)(F)F)CC1 | 0.181 | 6.21 | 0.209 | 7.62 | 0.234 | 6.93 | 0.721 | 6.31 | 0.142 | 1.74 | 0.172 | 0.979 | 6.61 | 0.12 | 0.363 | 0.0722 | 0.223 | 0.161 | 1.45 | 7.49
3 | O=C(/C=C/OC(=O)c1cccc(Cl)c1)c1ccc(Cl)cc1 | 35.8 | > 88.4 | 38.1 | > 100 | 41.9 | > 100 | 50.7 | > 100 | 31.3 | > 100 | 31.8 | > 51.5 | > 100 | > 40.3 | 96.9 | 52.2 | > 100 | 97.6 | > 100 | > 78.6
4 | COc1cc(/C=C/C(=O)c2c(C)nc3ccccc3c2C)ccc1OCCCN1CCN(C(=O)c2ccco2)CC1 | 16.1 | 52 | 7.95 | 20.6 | 10.9 | 25.8 | 5.74 | 30.9 | 3.5 | 15.7 | 0.528 | 1.86 | 9.03 | 4.14 | 17.7 | 7.22 | 29.9 | 3.28 | 16.1 | 8
5 | CCCN1CCC(c2ccc(Nc3nc(Nc4cc(F)ccc4C(N)=O)c4cc[nH]c4n3)c(OC)c2)CC1 | 3.03 | 6.93 | 0.509 | 1.97 | 3.42 | 7.8 | 0.54 | 15.1 | 0.178 | 3.61 | 4.4 | 3.16 | 9.56 | 1.17 | 5.07 | 4.04 | 8.82 | 0.572 | 5.2 | 12.3
6 | CCn1ccc(NS(=O)(=O)c2ccc(N)cc2)nc1=O | > 100 | > 100 | > 100 | > 100 | > 100 | > 100 | > 100 | > 100 | > 100 | > 100 | > 100 | > 100 | > 100 | > 100 | > 100 | > 100 | > 100 | > 100 | > 100 | > 100
7 | COc1ccc(/C=C2\c3cc(OC)c(OC)c(OC)c3CC[C@@H]2O)cc1F | 0.306 | 61.1 | 0.469 | 33.2 | 0.748 | > 100 | 0.19 | > 100 | 0.331 | > 100 | 0.956 | 0.391 | > 100 | 0.152 | 0.697 | 0.958 | > 100 | > 100 | > 100 | > 100
8 | Cc1cc(Cl)cc(Cc2cc(Cl)cc(C)c2O)c1O | 3.18 | 8.89 | 2.93 | 11.3 | 2.9 | 16.8 | 3.06 | 11.3 | 2.13 | 5.54 | 3.45 | 2.32 | 9.57 | 3.05 | 14.1 | 2.46 | 8.22 | 3.02 | 12.3 | 49.8
